Laboratory results published in patent publication US12037354B2, “Cyclic pantetheine derivatives and uses thereof” (VectivBio Comet AG, priority 2018, dated 2024).

Key:
Type in all cases: cell-based, human
[1] = system: Peripheral blood mononuclear cells co-cultured with B-cells (BT system); assay: BioMAP BT system, Example 829
Experimental: (§1) The BioMAP platform (BioMAP® Diversity PLUS Panel from Eurofins) is an in vitro phenotypic profiling technology that screened the compounds of the present disclosure (hereafter indicated as test agents) in human primary cell-based systems modelling complex tissue and disease states. The BioMAP assays were performed using the Eurofin's BioMAP Technology Platform as (see references 1 to 13 in the example 824 section) to model different diseases on primary cell-based model systems. These systems consisted of either single primary cell types or co-culture cells. Adherent cell types were cultured or co-cultured in 96 or 384-well plates until confluence followed by the addition of compounds prepared in DMSO at a final concentration of ≤0.1%. In each cell-based system, primary cells from heathy donors (2-6 donors) were pooled and treated with compounds at 1 and 10 μM dose 1 h prior to stimulation and remain in culture as indicated in
(§2) Example 825, Example 826, Example 827, Example 828, Example 829, Example 830, Example 831, Example 832, Example 833, Example 834, Example 835, Example 836 and Example 837. For on the BioMAP® Diversity PLUS® Panel, please see the following references, which are incorporate herein.
Following the general procedure as described in Example 824, Peripheral blood mononuclear cells were co-cultured with B-cells (BT system) were treated with either α-IgM and TCR ligands for 72 h in the presence or absence of the compounds to model asthma, allergy, oncology and autoimmunity. Biomarkers read out were; B-cell proliferation, PBMC cytotoxicity, secreted IgG, sIL-17A, sIL-17F, sIL-2, sIL-6 and s-TNFα.

[2] = system: Coronary artery smooth muscle cells (CASM3C system); assay: BioMAP CASM3C system, Example 832
Experimental: as §1, §2
Following the general procedure as described in Example 824, Coronary artery smooth muscle cells (CASM3C system) were treated with IL-1β, TNFα and IFNγ for 24 h in the presence or absence of the compounds to model cardiovascular inflammation and restenosis. Biomarker reads out were; MCP-1, VCAM-1, Throbomodulin, Tissue factor, uPAR, IL-8, MIG, HLA-DR, IL-6, LDLR, M-CSF, PAI-1, Proliferation, SAA and SRB

[3] = system: Venular Endothelial cells (HUVEC) (3C system); assay: BioMAP 3C system, Example 825
Experimental: as §1, with “In each cell-based system, primary cells from heathy donors (2-6 donors) were pooled and treated with compounds at 1 and 10 μM dose 1 h prior to stimulation and remain in culture as indicated in” left out
Following the general procedure as described in Example 824, Venular Endothelial cells (HUVEC) (3C system) were treated with IL-1β, TNFα, IFNγ for 24 h to model Th1 driven cardiovascular and chronic inflammation diseases in the presence or absence of the compounds. Biomarker read out were; Tissue Factor, ICAM-1, E-selectin, uPAR (CD87), IL-8, […], HLA-DR, proliferation and SRB (Sulfo-rhodamine i.e. staining for protein content).

[4] = system: Dermal fibroblasts (HDF3CGF system); assay: BioMAP HDF3CGF system, Example 833
Experimental: as §1, §2
Following the general procedure as described in Example 824, Dermal fibroblasts (HDF3CGF system) were treated with IL-1β, TNFα and IFNγ, EGF, bFGF and PDGF-BB for 24 h in the presence or absence of the compounds to model fibrosis and chronic inflammation. Biomarkers read out were; MCP-1, VCAM-1, ICAM-1, Collagen-I, Collagen-III, IP-10, I-TAC, IL-8, MIG, EGFR, M-CSF, MMP-1, PAI-1, SRB, TIMP-1, TIMP-2 and proliferation was measured for 72 h.

[5] = system: Venular endothelial cells co-cultured with macrophages (Mphg system); assay: BioMAP Mphg system, Example 836
Experimental: as §1, §2
Following the general procedure as described in Example 824, Venular endothelial cells co-cultured with macrophages (Mphg system) and treated with TLR2 ligand for 24 h in the presence or absence of the compounds to mimic cardiovascular inflammation, restenosis and chronic inflammation. Biomarkers read out were; MCP-1, MIP-1α, VCAM-1, CD40, E-selectin, CD69, IL-8, IL-1α, M-CSF, sIL-10 and SRB.

[6] = system: Bronchial epithelial cells co-cultured with dermal fibroblast (BF4T system); assay: BioMAP BF4T system, Example 830; conditions: for % increase in Eotaxin-3 / % increase in VCAM-1: 10 uM
Experimental: as §1, §2
Following the general procedure as described in Example 824, Bronchial epithelial cells were co-cultured with dermal fibroblast (BF4T system) and were treated with TNFα and IL-4 for 24 h in the presence or absence of the compounds to model asthma, allergy, fibrosis, lung inflammation. Biomarkers read out were; MCP-1, Eotaxin-3, VCAM-1, ICAM-1, CD90, IL-8, IL-1α, keratin 8/18, MMP-1, MMP-3, MMP-9, PAI-1, SRB, tPA, uPA.

[7] = system: Keratinocytes co-cultured with dermal fibroblast (KF3CT system); assay: BioMAP KF3CT system, Example 834
Experimental: as §1, §2
Following the general procedure as described in Example 824, Keratinocytes were co-cultured with dermal fibroblast (KF3CT system) and treated with […], TNFα, IFNγ and TGFβ for 24 h in the presence or absence of the compounds to model psoriasis, dermatitis and skin biology. Biomarkers read out were; MCP-1, ICAM-1, IP-10, IL-8, MIG, IL-1α, MMP-9, PAI-1, SRB, TIMP-2, uPA.

[8] = procedure of Example 825, concentration tested 10 uM
[9] = procedure of Example 825, concentration tested 1 uM
[10] = procedure of Example 836, 10 uM

C/C=C/C(=O)SCCNC(=O)CCNC(=O)[C@@H]1OP(=O)(O)OCC1(C)C [Compound 36]
% decrease in sTNFα ([1]; BT system, 1 uM): ≥10% | % increase in B-cell Proliferation ([1]; BT system, 10 uM): ≥20% | % increase in sIL-6 ([1]; BT system, 10 uM): ≥10% | % increase in B-cell Proliferation ([1]; concentration tested 10 uM): ≥20% | % decrease in LDLR ([2]; 1 uM): ≥10% | % decrease in VCAM-1 ([2]; 1 uM): ≥10% | % decrease in uPAR ([2]; 1 uM): ≥10% | % decrease in HLA-DR ([2]; 10 uM): ≥10% | % decrease in M-CSF ([2]; 10 uM): ≥10% | % decrease in Thrombomodulin ([2]; 10 uM): ≥20% | % decrease in Tissue Factor ([2]; 10 uM): ≥10% | % decrease in IL-8 ([3]; 3C system, 10 uM): ≥10% | % increase in Proliferation (HUVEC) ([3]; 3C system, 10 uM): ≥20% | % increase in Proliferation (HUVEC) ([3]; concentration tested 10 uM): ≥20% | % decrease in IL-8 [3, 8]: ≥10% | % decrease in EGFR ([4]; 1 uM): ≥10% | % decrease in TIMP-1 ([4]; 1 uM): ≥10% | % decrease in TIMP-2 ([4]; 1 uM): ≥20% | % decrease in MMP-1 ([4]; 10 uM): ≥10% | % increase in 72 Hour Proliferation ([4]; 10 uM): ≥10% | % increase in MIP-1α ([5]; Mphg system, 10 uM): ≥10%

CC(=O)CC(=O)SCCNC(=O)CCNC(=O)[C@@H]1OP(=O)(O)OCC1(C)C [Compound 42]
% decrease in B-cell proliferation ([1]; BT system, 10 uM): ≥10% | % decrease in sIL-17 ([1]; BT system, 10 uM): ≥20% | % decrease in sTNFα ([1]; BT system, 10 uM): ≥20% | % decrease in B-cell proliferation ([1]; concentration tested 10 uM): ≥10% | % decrease in sIL-17 ([1]; concentration tested 10 uM): ≥20% | % increase in Eotaxin-3 [6]: ≥10% | % increase in VCAM-1 [6]: ≥10% | % decrease in IL-8 ([2]; 10 uM): ≥10% | % decrease in LDLR ([2]; 10 uM): ≥10% | % decrease in Thrombomodulin ([2]; 10 uM): ≥10% | % decrease in MCP-1 ([7]; 1 uM (Example 927)): ≥10% | % decrease in MCP-1 ([7]; 1 uM (Example 928)): ≥10% | % decrease in TIMP-2 ([4]; 10 uM): ≥10% | % decrease in α-SMA ([5]; procedure of Example 836, 1 uM): ≥10% | % increase in MMP-1 ([5]; procedure of Example 836, 1 uM): ≥10%

CCOP1(=O)OCC(C)(C)[C@H](C(=O)NCCC(=O)NCCSC(=O)CCC(=O)O)O1 (stereo partly drawn) [Compound 61]
% increase in B-cell Proliferation ([1]; BT system, 10 uM): ≥10% | % increase in sIL-6 ([1]; BT system, 10 uM): ≥10% | % increase in B-cell Proliferation ([1]; concentration tested 10 uM): ≥10% | % increase in Eotaxin-3 [6]: ≥10% | % decrease in Tissue Factor ([2]; 1 uM): ≥10% | % decrease in VCAM-1 ([2]; 1 uM): ≥10% | % decrease in LDLR ([2]; 10 uM): ≥10% | % decrease in Thrombomodulin ([2]; 10 uM): ≥20% | % decrease in MCP-1 ([7]; 1 uM (Example 927)): ≥20% | % decrease in MCP-1 ([7]; 1 uM (Example 928)): ≥20% | % decrease in IL-8 ([3]; 3C system, 1 uM): ≥10% | % decrease in IL-8 [3, 9]: ≥10% | % decrease in TIMP-1 ([4]; 10 uM): ≥10% | % decrease in α-SMA [5, 10]: ≥10% | % increase in MMP-1 [5, 10]: ≥10%

COC(=O)CCC(=O)SCCNC(=O)CCNC(=O)[C@@H]1OC(=O)OCC1(C)C [Compound 451]
% decrease in sTNFα ([1]; BT system, 1 uM): ≥20% | % increase in B-cell Proliferation ([1]; BT system, 1 uM): ≥10% | % increase in B-cell Proliferation ([1]; concentration tested 1 uM): ≥10% | % increase in Eotaxin-3 [6]: ≥10% | % increase in VCAM-1 [6]: ≥10% | % decrease in Thrombomodulin ([2]; 1 uM): ≥10% | % decrease in VCAM-1 ([2]; 1 uM): ≥10% | % decrease in HLA-DR ([2]; 10 uM): ≥10% | % increase in IL-6 ([2]; 10 uM): ≥10% | % decrease in MCP-1 ([7]; 1 uM (Example 927)): ≥10% | % decrease in MCP-1 ([7]; 1 uM (Example 928)): ≥10% | % decrease in IL-8 ([3]; 3C system, 1 uM): ≥10% | % increase in Proliferation (HUVEC) ([3]; 3C system, 10 uM): ≥20% | % increase in Proliferation (HUVEC) ([3]; concentration tested 10 uM): ≥20% | % decrease in IL-8 [3, 9]: ≥10% | % decrease in Collagen III ([4]; 1 uM): ≥10% | % decrease in TIMP-1 ([4]; 1 uM): ≥10% | % decrease in α-SMA ([5]; procedure of Example 836, 1 uM): ≥10% | % decrease in VCAM-1 [5, 10]: ≥10% | % increase in MMP-1 [5, 10]: ≥10%

COC(=O)CCC(=O)SCCNC(=O)CCNC(=O)[C@@H]1OC(C)(CC(=O)OC)OCC1(C)C (stereo partly drawn) [Compound 633]
% decrease in sTNFα ([1]; BT system, 10 uM): ≥10% | % increase in B-cell Proliferation ([1]; BT system, 10 uM): ≥20% | % increase in sIL-2 ([1]; BT system, 10 uM): ≥20% | % increase in sIL-6 ([1]; BT system, 10 uM): ≥20% | % increase in B-cell Proliferation ([1]; concentration tested 10 uM): ≥20% | % decrease in MMP-9 ([6]; 1 uM): ≥10% | % increase in Eotaxin-3 [6]: ≥10% | % decrease in HLA-DR ([2]; 1 uM): ≥10% | % decrease in LDLR ([2]; 1 uM): ≥10% | % decrease in M-CSF ([2]; 1 uM): ≥10% | % decrease in Thrombomodulin ([2]; 1 uM): ≥10% | % decrease in Tissue Factor ([2]; 1 uM): ≥10% | % decrease in VCAM-1 ([2]; 1 uM): ≥10% | % decrease in uPAR ([2]; 1 uM): ≥10% | % decrease in IL-8 ([2]; 10 uM): ≥10% | % decrease in MCP-1 ([7]; 1 uM (Example 927)): ≥10% | % decrease in MCP-1 ([7]; 1 uM (Example 928)): ≥10% | % increase in Proliferation (HUVEC) ([3]; 3C system, 1 uM): ≥20% | % decrease in IL-8 ([3]; 3C system, 10 uM): ≥20% | % increase in Proliferation (HUVEC) ([3]; concentration tested 1 uM): ≥20% | % decrease in IL-8 [3, 8]: ≥20% | % decrease in EGFR ([4]; 1 uM): ≥10% | % decrease in TIMP-1 ([4]; 1 uM): ≥20% | % decrease in TIMP-2 ([4]; 1 uM): ≥10% | % increase in 72 Hour Proliferation ([4]; 10 uM): ≥10% | % increase in PAI-I ([4]; 10 uM): ≥10% | % decrease in VCAM-1 ([5]; procedure of Example 836, 1 uM): ≥10% | % decrease in α-SMA [5, 10]: ≥10%
